Laboratory results from ChEMBL document CHEMBL1201862, “PubChem BioAssay data set” (2004).
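Cells were grown in 96-well plates and exposed to each compound for 48 hours at five concentrations; endpoints were interpolated linearly between bracketing concentrations, or set to the highest concentration if not reached. GI50 marks 50% less growth.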 The source made the active and inactive calls. Cut-off read from the data, not from the text of the source: active = GI50 up to about 1.1 µM and inactive = higher.

Columns and labels:
Experiment in all cases: NCI tumour cell line growth inhibition, 48 h
K562 = tested on: K562
RXF 393 = tested on: RXF 393
A549 = tested on: A549
NCI-H23 = tested on: NCI-H23
BT-549 = tested on: BT-549
NCI-H460 = tested on: NCI-H460
HOP-62 = tested on: HOP-62
786-0 = tested on: 786-0
MOLT-4 = tested on: MOLT-4
SR = tested on: SR
SNB-19 = tested on: SNB-19
MDA-MB-231 = tested on: MDA-MB-231
KM12 = tested on: KM12
COLO 205 = tested on: COLO 205
ACHN = tested on: ACHN
OVCAR-3 = tested on: OVCAR-3
OVCAR-4 = tested on: OVCAR-4
SK-OV-3 = tested on: SK-OV-3
Malme-3M = tested on: Malme-3M
HCC 2998 = tested on: HCC 2998

Row | SMILES | GI50 (K562) | GI50 (RXF 393) | GI50 (A549) | GI50 (NCI-H23) | GI50 (BT-549) | GI50 (NCI-H460) | GI50 (HOP-62) | GI50 (786-0) | GI50 (MOLT-4) | GI50 (SR) | GI50 (SNB-19) | GI50 (MDA-MB-231) | GI50 (KM12) | GI50 (COLO 205) | GI50 (ACHN) | GI50 (OVCAR-3) | GI50 (OVCAR-4) | GI50 (SK-OV-3) | GI50 (Malme-3M) | GI50 (HCC 2998)
1 | CCOC(=O)c1c(NC(=O)c2ccc(Br)cc2)sc2c1CCCC2 | > 100 µM (inactive) | > 100 µM (inactive) | > 100 µM (inactive) | > 100 µM (inactive) | > 100 µM (inactive) | 0.182 µM (active) | > 100 µM (inactive) | > 100 µM (inactive) | > 100 µM (inactive) | > 100 µM (inactive) | > 100 µM (inactive) | > 100 µM (inactive) | 39.1 µM (inactive) | > 100 µM (inactive) | > 100 µM (inactive) | > 100 µM (inactive) | – | – | – | –
2 | CC1(C)S[C@H](CN)N[C@H]1C(=O)OC(c1ccccc1)c1ccccc1 | 22.9 µM (inactive) | 63.5 µM (inactive) | 42.2 µM (inactive) | 48.3 µM (inactive) | 24.8 µM (inactive) | – | 49.9 µM (inactive) | 48.5 µM (inactive) | 24.3 µM (inactive) | 27.9 µM (inactive) | – | 35.2 µM (inactive) | 38.5 µM (inactive) | 17.6 µM (inactive) | 84.3 µM (inactive) | – | 27.3 µM (inactive) | 78.3 µM (inactive) | 31.4 µM (inactive) | 18.6 µM (inactive)
3 | CC#CCOC(=O)c1ccccc1OC(C)=O | > 100 µM (inactive) | > 100 µM (inactive) | – | > 100 µM (inactive) | > 100 µM (inactive) | > 100 µM (inactive) | > 100 µM (inactive) | > 100 µM (inactive) | > 100 µM (inactive) | > 100 µM (inactive) | > 100 µM (inactive) | > 100 µM (inactive) | > 100 µM (inactive) | > 100 µM (inactive) | > 100 µM (inactive) | – | > 100 µM (inactive) | > 100 µM (inactive) | – | > 100 µM (inactive)
4 | CN(O)C(=O)c1cccc(Cl)c1 | > 100 µM (inactive) | > 100 µM (inactive) | > 100 µM (inactive) | > 100 µM (inactive) | > 100 µM (inactive) | 95.1 µM (inactive) | > 100 µM (inactive) | > 100 µM (inactive) | 51.2 µM (inactive) | 32.7 µM (inactive) | > 100 µM (inactive) | > 100 µM (inactive) | > 100 µM (inactive) | > 100 µM (inactive) | > 100 µM (inactive) | > 100 µM (inactive) | > 100 µM (inactive) | > 100 µM (inactive) | – | > 100 µM (inactive)
5 | COc1ccc(N2C(=O)C3ON(C(C(N)=O)c4ccccc4)C(c4ccc(-c5ccccc5)cc4)C3C2=O)cc1 (centres undefined) | > 50 µM (inactive) | > 50 µM (inactive) | > 50 µM (inactive) | > 50 µM (inactive) | > 50 µM (inactive) | > 50 µM (inactive) | > 50 µM (inactive) | > 50 µM (inactive) | > 50 µM (inactive) | > 50 µM (inactive) | > 50 µM (inactive) | > 50 µM (inactive) | > 50 µM (inactive) | 25.2 µM (inactive) | > 50 µM (inactive) | > 50 µM (inactive) | > 50 µM (inactive) | > 50 µM (inactive) | 31.8 µM (inactive) | –
6 | CCOC(=O)C(C)c1nc2cc(N3CCN(C)CC3)c(F)cc2[nH]c1=O (centres undefined) | > 100 µM (inactive) | > 100 µM (inactive) | > 100 µM (inactive) | > 100 µM (inactive) | > 100 µM (inactive) | > 100 µM (inactive) | > 100 µM (inactive) | > 100 µM (inactive) | > 100 µM (inactive) | > 100 µM (inactive) | > 100 µM (inactive) | > 100 µM (inactive) | > 100 µM (inactive) | > 100 µM (inactive) | > 100 µM (inactive) | > 100 µM (inactive) | > 100 µM (inactive) | > 100 µM (inactive) | 28.9 µM (inactive) | –
7 | CC(C)(C)C1=NC(=P(c2ccccc2)(c2ccccc2)c2ccccc2)C(=O)O1 | > 100 µM (inactive) | > 100 µM (inactive) | > 100 µM (inactive) | > 100 µM (inactive) | > 100 µM (inactive) | – | > 100 µM (inactive) | > 100 µM (inactive) | > 100 µM (inactive) | > 100 µM (inactive) | > 100 µM (inactive) | > 100 µM (inactive) | > 100 µM (inactive) | > 100 µM (inactive) | > 100 µM (inactive) | – | – | > 100 µM (inactive) | 98.4 µM (inactive) | –
8 | N#CCc1nc(-c2cc3ccc(O)cc3oc2=O)cs1 | 31.5 µM (inactive) | 84.7 µM (inactive) | 55 µM (inactive) | – | 25.2 µM (inactive) | 50 µM (inactive) | > 100 µM (inactive) | > 100 µM (inactive) | 37.9 µM (inactive) | 29.4 µM (inactive) | > 100 µM (inactive) | 95.1 µM (inactive) | 28.5 µM (inactive) | > 100 µM (inactive) | 57.9 µM (inactive) | – | 43.4 µM (inactive) | 73.6 µM (inactive) | > 100 µM (inactive) | 87.1 µM (inactive)
9 | CCN(CC)C(=S)Nc1ccc(-c2cc3ccc(O)cc3oc2=O)cc1 | 18.4 µM (inactive) | 30.2 µM (inactive) | 44.9 µM (inactive) | 29.7 µM (inactive) | 26.1 µM (inactive) | 31.4 µM (inactive) | – | 39.4 µM (inactive) | 13.4 µM (inactive) | 14.5 µM (inactive) | 29.9 µM (inactive) | 39.4 µM (inactive) | 28.8 µM (inactive) | 29.4 µM (inactive) | 25.9 µM (inactive) | 17.4 µM (inactive) | – | 44.1 µM (inactive) | 17 µM (inactive) | 20.2 µM (inactive)
10 | CC(=C/C=C/C=C(C)\C=C\C=C(\C)C(=O)O)/C=C/C=C(/C)C(=O)O | > 100 µM (inactive) | > 100 µM (inactive) | > 100 µM (inactive) | > 100 µM (inactive) | > 100 µM (inactive) | > 100 µM (inactive) | > 100 µM (inactive) | > 100 µM (inactive) | > 100 µM (inactive) | > 100 µM (inactive) | – | > 100 µM (inactive) | > 100 µM (inactive) | > 100 µM (inactive) | > 100 µM (inactive) | > 100 µM (inactive) | > 100 µM (inactive) | > 100 µM (inactive) | > 100 µM (inactive) | –
11 | CN1CCC/C1=C1/C(=O)N(c2ccccc2)N=C1c1ccc[nH]1 | > 100 µM (inactive) | > 100 µM (inactive) | > 100 µM (inactive) | > 100 µM (inactive) | > 100 µM (inactive) | > 100 µM (inactive) | > 100 µM (inactive) | > 100 µM (inactive) | > 100 µM (inactive) | > 100 µM (inactive) | > 100 µM (inactive) | > 100 µM (inactive) | > 100 µM (inactive) | > 100 µM (inactive) | > 100 µM (inactive) | > 100 µM (inactive) | > 100 µM (inactive) | – | > 100 µM (inactive) | > 100 µM (inactive)
12 | O=c1oc2ccccc2cc1P(=O)(O)O | > 100 µM (inactive) | > 100 µM (inactive) | > 100 µM (inactive) | > 100 µM (inactive) | > 100 µM (inactive) | > 100 µM (inactive) | > 100 µM (inactive) | > 100 µM (inactive) | > 100 µM (inactive) | > 100 µM (inactive) | > 100 µM (inactive) | > 100 µM (inactive) | – | > 100 µM (inactive) | > 100 µM (inactive) | > 100 µM (inactive) | > 100 µM (inactive) | – | > 100 µM (inactive) | > 100 µM (inactive)
13 | CCOC(=O)C1=CCOc2cc(N(C)C)ccc21 | 26.9 µM (inactive) | > 100 µM (inactive) | > 100 µM (inactive) | > 100 µM (inactive) | > 100 µM (inactive) | > 100 µM (inactive) | > 100 µM (inactive) | > 100 µM (inactive) | – | 65.9 µM (inactive) | > 100 µM (inactive) | > 100 µM (inactive) | > 100 µM (inactive) | > 100 µM (inactive) | > 100 µM (inactive) | 21.7 µM (inactive) | – | > 100 µM (inactive) | > 100 µM (inactive) | > 100 µM (inactive)
14 | O=C(c1cccnc1)N1N=C(c2ccc(Cl)cc2)CC1(O)c1cc(F)c(Cl)cc1Cl (centres undefined) | 16.6 µM (inactive) | 7.05 µM (inactive) | 24.9 µM (inactive) | 18.5 µM (inactive) | 24.6 µM (inactive) | 21.5 µM (inactive) | 21.5 µM (inactive) | 17.9 µM (inactive) | 6.46 µM (inactive) | 8.85 µM (inactive) | 41.3 µM (inactive) | 15.1 µM (inactive) | 28.8 µM (inactive) | 9.98 µM (inactive) | 18.8 µM (inactive) | 6.5 µM (inactive) | 15.8 µM (inactive) | 30.2 µM (inactive) | 33.3 µM (inactive) | –
15 | [N-]=[N+]=Nc1cc(=O)n2c3c(cccc13)CCC2 | > 100 µM (inactive) | > 100 µM (inactive) | > 100 µM (inactive) | > 100 µM (inactive) | > 100 µM (inactive) | > 100 µM (inactive) | > 100 µM (inactive) | > 100 µM (inactive) | > 100 µM (inactive) | > 100 µM (inactive) | – | > 100 µM (inactive) | > 100 µM (inactive) | > 100 µM (inactive) | > 100 µM (inactive) | > 100 µM (inactive) | > 100 µM (inactive) | – | > 100 µM (inactive) | > 100 µM (inactive)
